The record followed here is ChEMBL document CHEMBL1142956, “Small molecule inhibitors of histone arginine methyltransferases: homology modeling, molecular docking, binding mode analysis, and biological evaluations” (J Med Chem, 2007).

In assay [1] the target is Protein arginine N-methyltransferase 1 (Homo sapiens, UniProt Q99873). The experiment in a line: Inhibition of human recombinant GST-PRMT1 expressed in BL21 cells.
The target of another assay is RmtA (Emericella nidulans, UniProt Q5VLE3). The experiment in a line: Inhibition of Aspergillus nidulans recombinant GST-RmtA expressed in BL21 cells.

Structures are written as SMILES.

Regarding `O=C1NC(=O)C(=Nn2c(=O)[nH]c(=O)[nH]c2=O)C(=O)N1`, the IC50 (in assay [1]; at RmtA) was > 164 µM throughout.
As to `O=C(Nc1ccccc1)Nc1ccc2c(O)cc(S(=O)(=O)O)cc2c1`, the half-inhibitory concentration (IC50) (usually the concentration that inhibits the measured activity by half) on RmtA turned out to be 1080 µM.
Regarding `O=C1NS(=O)(=O)c2ccccc21` [SACCHARIN], the IC50 (in assay [1]; at RmtA) was > 510 µM each time.
Turning to `CN(C)c1ccc(/N=N/c2ccc(S(=O)(=O)O)cc2)cc1`, the half-maximal inhibitory concentration (IC50) at RmtA stood at 490 µM.
Turning to `CN(C)c1ccc(/N=N/c2ccccc2C(=O)O)cc1`, the half-maximal inhibitory concentration (IC50) on RmtA amounted to 2100 µM.
Take `Cc1cc(C(=C2C=CC(=N)C=C2)c2ccc(N)cc2)ccc1N` [FUCHSIN, BASIC]: the IC50 on RmtA (bl21) was determined as 515 µM.
Consider `O=C(O)c1ccc(Nc2nc(Cl)nc(Cl)n2)cc1`, for which the half-inhibitory concentration (IC50) at RmtA came to 406 µM.
As to `O=[N+]([O-])c1ccc2c(/N=N/c3cccc4ccccc34)c(O)cc(S(=O)(=O)O)c2c1`, the IC50 at RmtA is 103 µM.
On the same count and under the same terms, as for `O=C1C=CC(=C(c2ccc(O)cc2)c2ccccc2S(=O)(=O)O)C=C1`, the figure is > 263 µM.
As to `O=C1C=CC(=C(c2ccc(O)cc2)c2ccccc2C(=O)O)C=C1`, the IC50 was found to be 885 µM in assay [1] and 296 µM at RmtA.
As for `Nc1ccc2c(O)cc(S(=O)(=O)O)cc2c1`, the IC50 on RmtA was found to be 590 µM.
As for `O=C(O)c1ccc(Nc2nc(Cl)nc(Cl)n2)cc1-c1c2ccc(=O)cc-2oc2cc(O)ccc12`, the IC50 at RmtA turned out to be 73 µM.
Regarding `O=c1cc2oc3cc(O)c(O)cc3c(-c3ccccc3)c-2cc1O`, the concentration for half-maximal inhibition (IC50) on RmtA came out at 160 µM.
For `O=C(Nc1ccc2c(O)cc(S(=O)(=O)O)cc2c1)Nc1ccc2c(O)cc(S(=O)(=O)O)cc2c1`, the IC50 at RmtA turned out to be 88 µM.
For the compound `O=C(O)c1ccccc1-c1c2cc(Br)c(=O)c(Br)c-2oc2c(Br)c(O)c(Br)cc12`, the IC50 in assay [1] amounted to 1.4 µM; at RmtA, 0.18 µM.
For `Nc1c(Br)cc(C(=O)O)c(-c2c3cc(Br)c(=O)c(Br)c-3oc3c(Br)c(O)c(Br)cc23)c1Br`, in that order: 4.8 µM and 22.3 µM.
Take `COc1cc(/C=C/C(=O)CC(=O)/C=C/c2ccc(O)c(OC)c2)ccc1O` [CURCUMIN]: the concentration for half-maximal inhibition (IC50) at RmtA was 1100 µM.
Consider `Nc1ccc(C(=O)O)c(-c2c3ccc(=O)cc-3oc3cc(O)ccc23)c1`, for which, on RmtA, the concentration for half-maximal inhibition (IC50) is 710 µM.
Same read-out and setting: as for `O=C1c2ccccc2C(=O)c2c1ccc(O)c2O` [ATHRAQUINONES A], the figure is 1220 µM; as for `Nc1cc(S(=O)(=O)O)cc2cc(S(=O)(=O)O)cc(O)c12`, 220 µM.
With `CC1=C(CN(CC(=O)O)CC(=O)O)C(=O)C(C(C)C)=C/C1=C(\c1ccccc1S(=O)(=O)O)c1cc(C(C)C)c(O)c(CN(CC(=O)O)CC(=O)O)c1C`, the IC50 (in assay [1]; on RmtA) was > 34 µM in each case.
As for `O=S(=O)(O)c1cc(O)c2ccc(NC(=S)Nc3ccccc3)cc2c1`, the concentration for half-maximal inhibition (IC50) at RmtA was determined as 1360 µM.
Turning to `Cc1ccc(C(=O)Nc2ccc(S(=O)(=O)O)c3cc(S(=O)(=O)O)cc(S(=O)(=O)O)c23)cc1NC(=O)c1cccc(NC(=O)Nc2cccc(C(=O)Nc3cc(C(=O)Nc4ccc(S(=O)(=O)O)c5cc(S(=O)(=O)O)cc(S(=O)(=O)O)c45)ccc3C)c2)c1` [SURAMIN], the figures for the IC50 (in assay [1]; on RmtA) were 18.1 µM and 5.9 µM, respectively.
For `CC1=CC(=O)C(C(C)C)=C/C1=C(/c1cc(C(C)C)c(O)cc1C)c1ccccc1C(=O)O`, in that order: > 217 µM and > 217 µM.
In the case of `O=C1OC2(c3ccc(O)cc3Oc3cc(O)ccc32)c2ccccc21` [FLUORESCEIN], on RmtA, the half-inhibitory concentration (IC50) came out at 123 µM.
